From PubChem BioAssay (NCI)
Values joined by “and” are separate entries in the source; they are usually repeats but may differ in a detail not shown here. Equal values may be shown once.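 Cultured in 96-well plates, cells were exposed to test compound for 48 hours across five concentrations. Here, GI50 denotes the concentration required for 50% inhibition of growth. Definition used: TGI = concentration required for complete inhibition of growth.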

Legend:
Assay in all cases: NCI-60 cell line screen, 48 h
CAKI-1 renal = test system: CAKI-1 renal
CCRF-CEM leukemia = test system: CCRF-CEM leukemia
DU-145 prostate = test system: DU-145 prostate
HCT-116 colon = test system: HCT-116 colon
KM12 colon = test system: KM12 colon
NCI-H23 lung = test system: NCI-H23 lung
NCI-H522 lung = test system: NCI-H522 lung
OVCAR-3 ovarian = test system: OVCAR-3 ovarian
OVCAR-4 ovarian = test system: OVCAR-4 ovarian
OVCAR-5 ovarian = test system: OVCAR-5 ovarian
PC-3 prostate = test system: PC-3 prostate
RXF 393 renal = test system: RXF 393 renal
SF-295 CNS = test system: SF-295 CNS
SF-539 CNS = test system: SF-539 CNS
SN12C renal = test system: SN12C renal
SNB-19 CNS = test system: SNB-19 CNS
UACC-62 melanoma = test system: UACC-62 melanoma

SMILES	TGI (CAKI-1 renal)	TGI (CCRF-CEM leukemia)	TGI (DU-145 prostate)	TGI (HCT-116 colon)	TGI (KM12 colon)	TGI (NCI-H23 lung)	TGI (NCI-H522 lung)	TGI (OVCAR-3 ovarian)	TGI (OVCAR-4 ovarian)	TGI (OVCAR-5 ovarian)	TGI (PC-3 prostate)	TGI (RXF 393 renal) [µM]	TGI (SF-295 CNS)	TGI (SF-539 CNS)	TGI (SN12C renal)	TGI (SNB-19 CNS)	TGI (UACC-62 melanoma)	GI50 (OVCAR-4 ovarian)	GI50 (SF-539 CNS)
O=C1c2cccnc2-c2nccc3c2c1nc1cc(Br)ccc13	0.591 µM	0.465 µM	0.421 µM	0.0762 µM	0.338 µM	0.313 µM	0.29 µM	0.2 µM	0.563 µM	0.527 µM	1.12 µM	0.355	0.72 µM	0.709 µM	0.412 µM	0.88 µM	0.373 µM		
C=C(Cl)C(C)(Cl)CCC(Br)C(C)(C)Cl (centres undefined)	50.1 µM	67.2 µM	47.5 µM	29.5 µM	42.9 µM	50.7 µM	23.5 µM	32.4 µM	33.1 µM	47.7 µM	> 100 µM	30.3	88.6 µM	71.7 µM	31.6 µM	> 100 µM	30.9 µM		
Nc1ccc(C(=O)N2CCC[C@H]2CO)c(N)c1	> 100 µM	> 100 µM	> 100 µM	> 100 µM	> 100 µM	> 100 µM	> 100 µM	> 100 µM	> 100 µM	> 100 µM	> 100 µM	> 100	> 100 µM	> 100 µM	> 100 µM	> 100 µM	> 100 µM		
O=C(O)/C=c1/c2ccccc2n2nc3ccccc3c12	> 100 µM	99.6 µM	> 100 µM	90.7 µM	80.7 µM	> 100 µM	60 µM	> 100 µM	70.1 µM	> 100 µM	> 100 µM	> 100	> 100 µM	73.5 µM	88.8 µM	87.3 µM	43.5 µM		
O=[N+]([O-])/C(C(Cl)=C(Cl)Cl)=C(\N1CCCCC1)n1cncn1	25.2 µM	> 100 µM	30.3 µM	73.6 µM	40.8 µM	30.2 µM	31.6 µM	32.2 µM	36.7 µM	32.1 µM	31.7 µM	24.2	35.8 µM	31.4 µM	33.4 µM	33.6 µM	33 µM		
Cn1c2ccccc2c(=NNc2cccc(C(=O)O)c2)c2ccccc21	73.3 µM	25.6 µM	47.8 µM	28.2 µM	47.5 µM	32 µM	21 µM	11.9 µM	40.3 µM	41.6 µM	23.6 µM	22	58.5 µM	46.9 µM	30.3 µM	> 100 µM	39.8 µM		
COc1nc2nccnc2c(=O)n1C	> 10 µM	> 10 µM	> 10 µM	> 10 µM	> 10 µM	> 10 µM	> 10 µM	> 10 µM	> 10 µM	> 10 µM	> 10 µM	> 10	> 10 µM	> 10 µM	> 10 µM	> 10 µM	> 10 µM		
CC(=O)NC1c2ccccc2C(C)(C)C12CCC1(CC2)OCCO1 (centres undefined)	> 100 µM	> 100 µM	> 100 µM	> 100 µM	> 100 µM	> 100 µM	> 100 µM		> 100 µM	> 100 µM	> 100 µM	> 100	> 100 µM	> 100 µM	> 10 µM	> 100 µM	> 100 µM		
CN(C)CCOC1(Cc2ccc(F)cc2)CCC(C(C)(C)C)CC1 (centres undefined)	19.4 µM and 21 µM	9.82 µM and 12.9 µM	21.4 µM and 22.3 µM	15.6 µM and 15.9 µM	19.3 µM and 18.1 µM	27.5 µM and 24.8 µM	14.2 µM and 23.5 µM	23.2 µM and 28.1 µM	15 µM and 22.5 µM	21 µM and 20.5 µM	17.4 µM and 19 µM	8.04	11.9 µM and 13.1 µM	19.1 µM and 27.1 µM	25 µM and 27.5 µM	24.6 µM and 19.4 µM	15.8 µM and 17 µM	4.33 µM and 9.3 µM	5.73 µM and 13.4 µM
C=C1C(=O)C=C[C@]2(C)CC[C@H]3C(=C)C(=O)O[C@@H]3[C@@H]12	8.53 µM	> 100 µM	5.13 µM	0.483 µM	3.53 µM	9.61 µM	3.77 µM	11.1 µM	5.78 µM	3 µM	15.7 µM	4.47	30.6 µM	2.61 µM	7.49 µM	87.6 µM	4.29 µM		
CC(C)(C)OC(=O)NCCCNC1(c2cc3ccccc3s2)CCCCC1	26.8 µM	40.3 µM	32.2 µM	24.8 µM	33.1 µM	26.4 µM	32 µM	27.5 µM	29.5 µM	27.5 µM	47.6 µM	29.8	28.4 µM	34.2 µM	30.5 µM	27.2 µM	31.4 µM		
COc1ccc(/C=C2\N=C(SC)NC2=O)cc1	> 100 µM	> 100 µM	> 100 µM	> 100 µM	> 100 µM	> 100 µM	> 100 µM	> 100 µM	> 100 µM	> 100 µM	> 100 µM	> 100	> 100 µM	> 100 µM	> 100 µM	> 100 µM	> 100 µM		
NC(CCC(=O)NC(CSCC1C(=O)Nc2ccccc21)C(=O)NCC(=O)O)C(=O)O (centres undefined)	9.95 µM	> 24.8 µM	12.9 µM	9.27 µM	> 32.9 µM	11.3 µM	2.8 µM	11.2 µM	> 22.2 µM	31.1 µM	49 µM	2.33	> 45.6 µM	18.3 µM	13.9 µM	> 100 µM	23.6 µM		
Nc1nc(Cl)cc(NCC2(CO)CCCC2)n1	> 100 µM	> 100 µM	> 100 µM	> 100 µM	> 100 µM	> 100 µM	> 100 µM	> 100 µM	> 100 µM	> 100 µM	> 100 µM	> 100	> 100 µM	> 100 µM	> 100 µM	> 100 µM	> 100 µM		
C=CC[C@]12C=C(OC)[C@@H](O)[C@](OC)(C(c3cc(OC)c4c(c3)OCO4)[C@H]1C)[C@H]2OC(C)=O (some centres undefined)	> 100 µM	> 100 µM	> 100 µM	> 100 µM	> 100 µM	> 100 µM	> 100 µM	> 100 µM	> 100 µM	> 100 µM	> 100 µM	> 100	> 100 µM	> 100 µM	> 100 µM	> 100 µM	> 100 µM		
O=c1oc2ccc([N+](=O)[O-])cc2c(Nc2ccc3c(c2)Oc2ccccc2O3)c1[N+](=O)[O-]	> 100 µM	84.7 µM	> 100 µM	> 100 µM	> 100 µM	62.3 µM	> 100 µM	> 100 µM	> 100 µM	> 100 µM	55.4 µM	> 100	> 100 µM	61.1 µM	> 100 µM	> 100 µM	> 100 µM		
CCOC(=O)C1C2CCC1CC(=NNc1ccc([N+](=O)[O-])cc1[N+](=O)[O-])C2 (centres undefined)	> 50 µM	> 50 µM	> 50 µM	> 50 µM	> 50 µM	> 50 µM	> 50 µM	> 50 µM	> 50 µM	> 50 µM	> 50 µM	> 50	> 50 µM	> 50 µM	> 50 µM	> 50 µM	> 50 µM		
NNC(=O)CSc1nc2ccccc2c(=O)n1N	> 100 µM	> 100 µM	> 100 µM	> 100 µM	> 100 µM	> 100 µM	> 100 µM	> 100 µM	> 100 µM	> 100 µM	> 100 µM	95.5	> 100 µM	> 100 µM	> 100 µM	44.6 µM	> 100 µM		
C[N+]12CCCCC1C(CN1C(=O)Cc3c4ccccc4c(c4ccccc34)CC1=O)CCC2 (centres undefined)	> 100 µM	> 100 µM	> 100 µM	> 100 µM	> 100 µM	> 100 µM	> 100 µM	> 100 µM	> 100 µM	> 100 µM	> 100 µM	> 100	> 100 µM	> 100 µM	> 100 µM	> 100 µM	> 100 µM		
CSc1cnc2ccccc2c1SC1CN(Cc2ccccc2)c2ccccc2C1=O (centres undefined)	> 100 µM	> 100 µM	> 100 µM	> 100 µM	> 100 µM	> 100 µM	> 100 µM	> 100 µM	> 100 µM	> 100 µM	> 100 µM	> 100	> 100 µM	> 100 µM	> 100 µM	> 100 µM	> 100 µM		
COC1C=COC2(C)Oc3c(C)c(O)c4c(O)c(c(C5SCCS5)c(O)c4c3C2=O)NC(=O)C(C)=C/C=C\C(C)C2OC(C)(C)OC(C2C)C(C)C(OC(C)=O)C1C (centres undefined)	27.7 µM	> 100 µM	59.8 µM	> 100 µM	> 100 µM	80.9 µM	23 µM	> 100 µM	54.7 µM	> 100 µM	> 100 µM	30	28.7 µM	86.4 µM	16.6 µM	> 100 µM	15 µM		
N#Cc1c(Cl)cc(Cl)n2c1nc1ccccc12	7.67 µM	> 100 µM	31.8 µM	29.8 µM	33.1 µM	39.9 µM	3.61 µM	15.6 µM	34 µM	41.9 µM	29.3 µM	26.7	32.4 µM	12 µM	42.1 µM	50.7 µM	29.8 µM		
N#CC1=C(N)N(c2ccccc2)C(c2ccccc2)C1(C#N)C#N (centres undefined)	> 100 µM	33.7 µM	32.9 µM	29.4 µM	30.9 µM	44.8 µM	34.9 µM	34.6 µM	51.1 µM	37.3 µM	40.3 µM	33.6	61.1 µM	32.5 µM	36.6 µM	43.2 µM	45.7 µM		
CC(=O)OCC1OC(n2c3c(cc(C#N)c2=S)CCCCC3)C(OC(C)=O)C(OC(C)=O)C1OC(C)=O (centres undefined)	> 100 µM	> 100 µM	> 100 µM	> 100 µM	> 100 µM	> 100 µM	> 100 µM	> 100 µM	> 100 µM	> 100 µM	> 100 µM	> 100	> 100 µM	> 100 µM	> 100 µM	> 100 µM	> 100 µM		
CC12CCC(O)CC1CCC1C2CCC2(C)C(C(=O)CC(O)C(F)(F)F)CCC12 (centres undefined)	> 62.3 µM	> 93.1 µM	> 100 µM	> 100 µM	> 100 µM	> 100 µM	> 100 µM	> 90.9 µM	> 100 µM	> 76.5 µM	> 100 µM	29.3	26.7 µM	> 92.9 µM	> 100 µM	69.6 µM	> 100 µM		
COc1ccc(NS(=O)(=O)c2ccc(NC(NC(=O)CC(C)C)(C(F)(F)F)C(F)(F)F)cc2)nn1	> 100 µM	> 100 µM	> 100 µM	> 100 µM	> 100 µM	> 100 µM	> 100 µM	> 100 µM	> 100 µM	> 100 µM	> 100 µM	> 100	> 100 µM	> 100 µM	> 100 µM	> 100 µM	> 100 µM		
CSc1ncnc2c1ncn2CCC#N	> 100 µM	> 100 µM	> 100 µM	> 100 µM	> 100 µM	> 100 µM	> 100 µM	> 100 µM	> 100 µM	> 100 µM	> 100 µM	> 100	> 100 µM	> 100 µM	> 100 µM	> 100 µM			
